Measured values from US9775871B2, “Herbal compositions and methods for treating hepatic disorders” (priority 2007, dated 2017).

Test system: primary cultures of rat hepatocytes
Assay: Production of free radicals (DCFH-DA fluorescence) after t-BOOH exposure

O=c1c(O)c(-c2ccc(O)c(O)c2)oc2cc(O)cc(O)c12 [Quercetin, quercetin]
Free radicals (%) (5 μM, Table 1, ratio of t-BOOH positive control, positive control of the test): 51.5 ± 2.1%
Free radicals (%) (25 μM, Table 1, ratio of t-BOOH positive control, positive control of the test): 18.8 ± 1.2%
Free radicals (%) (25 μM, Table 2, ratio of t-BOOH control (100), median ± SE): 13.2 ± 5.6 %
